Measured values from the supplement of paper PMC8617591.

Assays:
[1] = test system: Mycobacterium tuberculosis Erdman (autoluminescent); assay: AUC25, normalised area under dose response up to IC25 (three-drug combination) (fraction (0-1)); higher = more potent at low dose
Experimental: (§1)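 DiaMOND equipotent three-drug combination dose responses (10 doses, 1.5- or 2-fold spacing, centred on IC90) against autoluminescent M. tuberculosis Erdman in 8 in vitro models. Read-out is OD600, or luminescence for the intracellular and dormancy models, normalised to untreated wells. Hill-fit Einf, AUC25 and GRinf are potency metrics; FIC50 and FIC90 are total Loewe fractional inhibitory concentrations as log2 (negative = synergy).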

[2] = test system: Mycobacterium tuberculosis Erdman (autoluminescent); assay: total FIC90 (Loewe) at 90% inhibition, three-drug combination (log2); higher = more antagonistic
Experimental: as §1

[3] = test system: Mycobacterium tuberculosis Erdman (autoluminescent); assay: GRinf, maximum normalised growth rate inhibition (three-drug combination) (unitless (-1 to 1)); higher = less effect (negative = killing)
Experimental: as §1

[4] = test system: Mycobacterium tuberculosis Erdman (autoluminescent); assay: total FIC50 (Loewe) at 50% inhibition, three-drug combination (log2); higher = more antagonistic
Experimental: as §1

[5] = test system: Mycobacterium tuberculosis Erdman (autoluminescent); assay: Einf, fitted maximum growth inhibition of three-drug combination (fraction); higher = stronger maximal inhibition
Experimental: as §1

CC(C)/N=c1\cc2n(-c3ccc(Cl)cc3)c3ccccc3nc-2cc1Nc1ccc(Cl)cc1 [clofazimine] + NNC(=O)c1ccncc1 [isoniazid] + CO[C@H]1/C=C/O[C@@]2(C)Oc3c(C)c(O)c4c(O)c(c(/C=N/N5CCN(C)CC5)c(O)c4c3C2=O)NC(=O)/C(C)=C\C=C\[C@H](C)[C@H](O)[C@@H](C)[C@@H](O)[C@@H](C)[C@H](OC(C)=O)[C@@H]1C [rifampicin]
Settings | AUC25, [1] | Einf, [5] | GRinf, [3] | total FIC50, [4] | total FIC90, [2]
in vitro model: acidic pH 5.7, time point: constant (~7 days, model-specific) | 0.0827 | 0.859 | -0.00905 | 0.524 | –
in vitro model: acidic pH 5.7, time point: terminal (~4-5 doublings, model-specific) | 0.0711 | 0.977 | -0.102 | 0.542 | 0.223
in vitro model: intracellular J774, time point: constant = terminal | – | 0.983 | -0.28 | – | 0.112

Settings | AUC25, [1] | Einf, [5] | GRinf, [3] | total FIC50, [4] | total FIC90, [2]
in vitro model: butyrate, time point: constant (~7 days, model-specific) | 0.107 | 0.958 | -0.146 | 0.388 | 0.605
in vitro model: butyrate, time point: terminal (~4-5 doublings, model-specific) | 0.082 | 0.978 | -0.104 | 0.318 | 0.248
in vitro model: cholesterol 0.05 mM, time point: constant (~7 days, model-specific) | 0.102 | 0.662 | 0.064 | 0.74 | –
in vitro model: cholesterol 0.05 mM, time point: terminal (~4-5 doublings, model-specific) | 0.0787 | 0.896 | 0.0504 | 1.25 | -0.29
in vitro model: cholesterol-high 0.2 mM, time point: constant (~7 days, model-specific) | 0.0653 | 0.891 | -0.205 | 0.286 | –
in vitro model: cholesterol-high 0.2 mM, time point: terminal (~4-5 doublings, model-specific) | 0.0563 | 0.996 | -0.68 | 0.929 | 0.197
in vitro model: dormancy (butyrate + nitrate, low O2), time point: constant (~7 days, model-specific) | 0.0885 | 0.876 | 0.253 | -0.0155 | -0.596
in vitro model: dormancy (butyrate + nitrate, low O2), time point: terminal (~4-5 doublings, model-specific) | 0.0839 | 0.988 | -0.19 | -0.403 | 0.28
in vitro model: standard 7H9 glycerol, time point: constant = terminal | 0.112 | 0.945 | -0.018 | -0.19 | 0.0305
in vitro model: valerate, time point: constant (~7 days, model-specific) | 0.112 | 0.866 | -0.116 | 0.565 | –
in vitro model: valerate, time point: terminal (~4-5 doublings, model-specific) | 0.0604 | 0.918 | 0.0831 | 0.286 | 0.147

CC(C)/N=c1\cc2n(-c3ccc(Cl)cc3)c3ccccc3nc-2cc1Nc1ccc(Cl)cc1 [clofazimine] + NNC(=O)c1ccncc1 [isoniazid] + COc1c(N2C[C@@H]3CCCN[C@@H]3C2)c(F)cc2c(=O)c(C(=O)O)cn(C3CC3)c12 [moxifloxacin]
Settings | AUC25, [1] | Einf, [5] | GRinf, [3] | total FIC50, [4] | total FIC90, [2]
in vitro model: acidic pH 5.7, time point: constant (~7 days, model-specific) | 0.148 | 0.438 | 0.301 | – | –
in vitro model: acidic pH 5.7, time point: terminal (~4-5 doublings, model-specific) | 0.0974 | 0.923 | -0.33 | 0.581 | 0.708
in vitro model: intracellular J774, time point: constant = terminal | – | 1 | -0.424 | – | 0.642

Settings | AUC25, [1] | Einf, [5] | GRinf, [3] | total FIC50, [4] | total FIC90, [2]
in vitro model: butyrate, time point: constant (~7 days, model-specific) | 0.0935 | 0.949 | -0.0926 | 0.57 | 1.04
in vitro model: butyrate, time point: terminal (~4-5 doublings, model-specific) | 0.0779 | 0.981 | -0.0848 | 0.531 | 0.768
in vitro model: cholesterol 0.05 mM, time point: constant (~7 days, model-specific) | 0.131 | 0.707 | -0.174 | 0.411 | –
in vitro model: cholesterol 0.05 mM, time point: terminal (~4-5 doublings, model-specific) | 0.119 | 0.919 | -0.228 | 0.344 | 0.0839
in vitro model: cholesterol-high 0.2 mM, time point: constant (~7 days, model-specific) | 0.102 | 0.943 | -0.266 | 0.253 | 0.868
in vitro model: cholesterol-high 0.2 mM, time point: terminal (~4-5 doublings, model-specific) | 0.0858 | 1 | -0.61 | 0.464 | 0.399
in vitro model: dormancy (butyrate + nitrate, low O2), time point: constant (~7 days, model-specific) | 0.094 | 0.929 | 0.151 | 0.252 | -0.33
in vitro model: dormancy (butyrate + nitrate, low O2), time point: terminal (~4-5 doublings, model-specific) | 0.0919 | 0.988 | -0.177 | 0.0561 | 1.09
in vitro model: standard 7H9 glycerol, time point: constant = terminal | 0.0829 | 0.977 | -0.209 | 0.374 | 0.44
in vitro model: valerate, time point: constant (~7 days, model-specific) | 0.079 | 0.84 | 0.0938 | 0.474 | –
in vitro model: valerate, time point: terminal (~4-5 doublings, model-specific) | 0.0672 | 0.917 | 0.0935 | 0.256 | 0.99

CC(C)/N=c1\cc2n(-c3ccc(Cl)cc3)c3ccccc3nc-2cc1Nc1ccc(Cl)cc1 [clofazimine] + NNC(=O)c1ccncc1 [isoniazid] + NC(=O)c1cnccn1 [pyrazinamide]
Settings | AUC25, [1] | Einf, [5] | GRinf, [3] | total FIC50, [4] | total FIC90, [2]
in vitro model: acidic pH 5.7, time point: constant (~7 days, model-specific) | 0.105 | 0.819 | -0.294 | 0.25 | –
in vitro model: acidic pH 5.7, time point: terminal (~4-5 doublings, model-specific) | 0.0972 | 0.977 | -0.35 | -0.0265 | -0.409
in vitro model: intracellular J774, time point: constant = terminal | – | 0.964 | -0.705 | – | 0.267

Settings | AUC25, [1] | Einf, [5] | GRinf, [3] | total FIC50, [4] | total FIC90, [2]
in vitro model: butyrate, time point: constant (~7 days, model-specific) | 0.112 | 0.953 | -0.112 | -0.201 | 0.915
in vitro model: butyrate, time point: terminal (~4-5 doublings, model-specific) | 0.0804 | 0.968 | -0.0686 | -0.0738 | 0.168
in vitro model: cholesterol 0.05 mM, time point: constant (~7 days, model-specific) | 0.131 | 0.74 | -0.217 | – | –
in vitro model: cholesterol 0.05 mM, time point: terminal (~4-5 doublings, model-specific) | 0.132 | 0.924 | -0.252 | 0.486 | –
in vitro model: cholesterol-high 0.2 mM, time point: constant (~7 days, model-specific) | 0.0931 | 0.938 | -0.335 | 0.341 | –
in vitro model: cholesterol-high 0.2 mM, time point: terminal (~4-5 doublings, model-specific) | 0.0853 | 0.997 | -0.517 | 0.634 | 0.384
in vitro model: dormancy (butyrate + nitrate, low O2), time point: constant (~7 days, model-specific) | 0.0828 | 0.88 | 0.259 | -0.675 | -0.607
in vitro model: dormancy (butyrate + nitrate, low O2), time point: terminal (~4-5 doublings, model-specific) | 0.0727 | 0.986 | -0.174 | -0.286 | 0.161
in vitro model: standard 7H9 glycerol, time point: constant = terminal | 0.114 | 0.942 | -0.135 | 0.447 | –
in vitro model: valerate, time point: constant (~7 days, model-specific) | 0.119 | 0.86 | 0.022 | -0.0616 | –
in vitro model: valerate, time point: terminal (~4-5 doublings, model-specific) | 0.0674 | 0.933 | 0.0539 | 0.187 | 0.474

CC(C)/N=c1\cc2n(-c3ccc(Cl)cc3)c3ccccc3nc-2cc1Nc1ccc(Cl)cc1 [clofazimine] + NNC(=O)c1ccncc1 [isoniazid] + O=[N+]([O-])c1cn2c(n1)OC[C@@H](OCc1ccc(OC(F)(F)F)cc1)C2 [pretomanid]
Settings | AUC25, [1] | Einf, [5] | GRinf, [3] | total FIC50, [4] | total FIC90, [2]
in vitro model: acidic pH 5.7, time point: constant (~7 days, model-specific) | 0.0904 | 0.772 | -0.0866 | -0.103 | –
in vitro model: acidic pH 5.7, time point: terminal (~4-5 doublings, model-specific) | 0.0916 | 0.963 | -0.274 | 0.278 | 0.567
in vitro model: intracellular J774, time point: constant = terminal | – | 0.976 | -0.35 | – | 0.28

Settings | AUC25, [1] | Einf, [5] | GRinf, [3] | total FIC50, [4] | total FIC90, [2]
in vitro model: butyrate, time point: constant (~7 days, model-specific) | 0.106 | 0.965 | -0.205 | 0.629 | 1.4
in vitro model: butyrate, time point: terminal (~4-5 doublings, model-specific) | 0.0874 | 0.989 | -0.14 | 0.581 | 1.02
in vitro model: cholesterol 0.05 mM, time point: constant (~7 days, model-specific) | 0.119 | 0.713 | -0.0879 | 0.824 | –
in vitro model: cholesterol 0.05 mM, time point: terminal (~4-5 doublings, model-specific) | 0.0944 | 0.912 | -0.156 | 7.01 | 0.912
in vitro model: cholesterol-high 0.2 mM, time point: constant (~7 days, model-specific) | 0.102 | 0.971 | -0.31 | 0.301 | –
in vitro model: cholesterol-high 0.2 mM, time point: terminal (~4-5 doublings, model-specific) | 0.0894 | 1 | -0.709 | 0.306 | 0.374
in vitro model: dormancy (butyrate + nitrate, low O2), time point: constant (~7 days, model-specific) | 0.0958 | 0.93 | 0.217 | -0.236 | -0.894
in vitro model: dormancy (butyrate + nitrate, low O2), time point: terminal (~4-5 doublings, model-specific) | 0.0744 | 0.987 | -0.177 | -0.374 | -0.0746
in vitro model: standard 7H9 glycerol, time point: constant = terminal | 0.116 | 0.949 | -0.229 | 0.139 | 0.594
in vitro model: valerate, time point: constant (~7 days, model-specific) | 0.15 | 0.918 | -0.199 | 0.901 | 2.23
in vitro model: valerate, time point: terminal (~4-5 doublings, model-specific) | 0.0945 | 0.942 | -0.0153 | 0.511 | 2.01
